Assay [1] can be described thus: Luminescence Cell-Based Dose Retest to Confirm Inhibitors of Cancer Stem Cells. [Related pubchem assays (depositor defined):AID2717, AID2721]. Format: functional. Conditions: Homo sapiens.
The target of another assay is DNA topoisomerase (Yersinia pestis, UniProt A0A2S9PM60). Description: Y. pestis Topo-I inhibitors, cleavage product readout, dose response, biochemical, cherry-pick (AID 588525).
For another assay, the system named is INS1. Description: beta cell apoptosis inhibitors, cytokine rescue, dose response, luminescence, retest (AID 449756).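 Also: cell death triggered by IL-1 beta plus TNF-alpha plus IFN-gamma mixture; protective hits raise ATP signal compared with cytokine alone wells.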 Type of assay: functional, cell-based. Conditions: Rattus norvegicus.
In assay [2] the target is Botulinum neurotoxin type A (Clostridium botulinum (strain Hall / ATCC 3502 / NCTC 13319 / Type A), UniProt P0DPI1). Put plainly: High-throughput multiplex microsphere dose response for inhibitors of toxin protease, specifically Botulinum neurotoxin light chain A protease, compounds from Cherry Pick 01. Format: functional. Conditions: read-out: EC50_MICROM.
Botulinum neurotoxin type A, sequence (P0DPI1 2-448 limits assumed): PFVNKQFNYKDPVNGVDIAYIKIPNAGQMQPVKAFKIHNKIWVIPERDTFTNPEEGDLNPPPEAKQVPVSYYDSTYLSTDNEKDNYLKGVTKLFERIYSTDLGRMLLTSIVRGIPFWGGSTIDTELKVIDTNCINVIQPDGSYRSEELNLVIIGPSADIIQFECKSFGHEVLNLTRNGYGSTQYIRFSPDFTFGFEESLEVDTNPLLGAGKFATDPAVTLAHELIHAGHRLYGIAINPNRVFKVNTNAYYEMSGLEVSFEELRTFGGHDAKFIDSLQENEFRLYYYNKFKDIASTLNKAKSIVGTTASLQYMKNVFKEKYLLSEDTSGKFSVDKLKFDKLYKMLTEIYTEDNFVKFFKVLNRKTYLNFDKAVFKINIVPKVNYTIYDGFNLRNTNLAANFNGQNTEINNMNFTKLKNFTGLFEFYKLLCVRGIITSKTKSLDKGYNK
Assay [3] addresses Latent membrane protein 1 (Human herpesvirus 4 (strain B95-8), UniProt P03230). Put plainly: TES1-eGFP NF-kB reporter inhibition versus Tet-On dsRED, dose response, selectivity assay for LMP1 NF-kB inhibitor project, imaging, HEK293T, dual-color eGFP/dsRED, cherry-picks (AID 588398). Type of assay: functional, cell-based.
The target in assay [4] is T1, DNA repair protein RAD52 homolog (Homo sapiens, UniProt P43351).
T1 sequence (P43351 whole entry): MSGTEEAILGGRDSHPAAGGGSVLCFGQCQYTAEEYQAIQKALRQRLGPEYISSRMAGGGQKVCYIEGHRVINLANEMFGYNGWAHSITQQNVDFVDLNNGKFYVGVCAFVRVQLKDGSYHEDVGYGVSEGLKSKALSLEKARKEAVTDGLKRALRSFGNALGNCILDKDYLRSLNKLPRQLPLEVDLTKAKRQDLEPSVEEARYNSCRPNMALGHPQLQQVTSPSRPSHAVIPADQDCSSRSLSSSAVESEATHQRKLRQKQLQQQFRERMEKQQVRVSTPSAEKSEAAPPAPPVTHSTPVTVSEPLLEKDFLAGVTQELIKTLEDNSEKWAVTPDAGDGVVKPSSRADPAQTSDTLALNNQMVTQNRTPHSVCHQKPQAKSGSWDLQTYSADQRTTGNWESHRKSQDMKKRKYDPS
Type of assay: functional, biochemical.

The nature of assay [5]: SAR analysis of small molecule activators of Apaf-1 using a LZ-Caspase-9/Caspase-3 Fluorescent Selectivity assay - Set 2. Format: functional. To be noted: read-out: EC50_Mean.
Assay [6] concerns the target T2, Apoptotic protease-activating factor 1 (Homo sapiens, UniProt O14727). Description: SAR analysis of small molecule Activators of Apaf-1 in a Fluorescent assay - set 2. To be noted: read-out: EC50_Mean. Format: functional.
Assay [7] concerns the target T3, Neuropeptides B/W receptor type 1 (Homo sapiens, UniProt P48145).
T3 sequence (P48145 whole entry): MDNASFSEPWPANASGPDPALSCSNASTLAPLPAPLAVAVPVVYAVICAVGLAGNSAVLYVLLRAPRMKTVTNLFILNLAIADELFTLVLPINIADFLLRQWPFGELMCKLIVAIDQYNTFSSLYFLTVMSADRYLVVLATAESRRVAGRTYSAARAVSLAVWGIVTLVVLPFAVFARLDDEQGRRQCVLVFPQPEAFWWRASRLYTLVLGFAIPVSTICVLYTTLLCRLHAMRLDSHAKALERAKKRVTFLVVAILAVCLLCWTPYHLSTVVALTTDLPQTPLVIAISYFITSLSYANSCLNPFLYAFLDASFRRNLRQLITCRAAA
Put plainly: GPR7 antagonist potency, late-stage follow-up, cell-based, fluorescence, dose response, set 5 (AID 588566). Format: functional.

For assay [8], the target named is Melanin-concentrating hormone receptor 1 (Homo sapiens, UniProt Q99705). Put plainly: Late-stage fluorescence-based counterscreen for antagonists of the G-protein coupled receptor 7 (GPR7): cell-based dose response assay to identify antagonists of the melanin-concentrating hormone receptor 1 (MCHR1) Set 5. Format: functional.
Melanin-concentrating hormone receptor 1, sequence (Q99705 whole entry): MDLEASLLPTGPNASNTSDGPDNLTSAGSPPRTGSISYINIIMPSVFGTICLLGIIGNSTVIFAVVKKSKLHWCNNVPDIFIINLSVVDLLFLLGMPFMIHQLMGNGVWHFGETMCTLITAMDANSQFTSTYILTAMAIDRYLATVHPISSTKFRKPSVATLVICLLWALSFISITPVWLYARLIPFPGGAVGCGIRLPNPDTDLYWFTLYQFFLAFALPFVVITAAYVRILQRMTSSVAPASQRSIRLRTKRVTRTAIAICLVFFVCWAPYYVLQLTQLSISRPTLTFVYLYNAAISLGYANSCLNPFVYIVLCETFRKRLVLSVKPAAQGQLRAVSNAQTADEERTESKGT
Assay [9] deals with T4, Microphthalmia-associated transcription factor (Homo sapiens, UniProt O75030).
T4 sequence (O75030 whole entry): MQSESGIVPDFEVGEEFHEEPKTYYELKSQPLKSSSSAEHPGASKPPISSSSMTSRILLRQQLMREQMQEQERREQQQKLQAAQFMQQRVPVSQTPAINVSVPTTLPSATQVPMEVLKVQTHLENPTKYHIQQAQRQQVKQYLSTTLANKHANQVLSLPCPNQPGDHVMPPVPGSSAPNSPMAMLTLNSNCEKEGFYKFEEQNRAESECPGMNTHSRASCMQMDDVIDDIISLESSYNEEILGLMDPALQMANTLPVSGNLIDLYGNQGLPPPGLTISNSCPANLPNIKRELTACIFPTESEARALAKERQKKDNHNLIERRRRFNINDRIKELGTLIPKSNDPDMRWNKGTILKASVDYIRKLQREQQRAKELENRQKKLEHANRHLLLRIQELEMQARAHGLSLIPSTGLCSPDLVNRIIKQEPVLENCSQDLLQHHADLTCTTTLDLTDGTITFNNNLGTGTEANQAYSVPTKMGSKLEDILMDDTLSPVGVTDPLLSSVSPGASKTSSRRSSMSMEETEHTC
Put plainly: TRPM1 promoter luciferase signal decrease, dose response, MITF inhibitor project, cell-based, SK-MEL-5, cherry-picked, set 3 (AID 493073).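 Also: SK-MEL-5 melanoma cells with luciferase driven by the MITF target TRPM1 promoter.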 Type of assay: functional.

The target in assay [10] is T2, Apoptotic protease-activating factor 1. Format: functional.
Assay [11] concerns the target T5, Sentrin-specific protease 8 (Homo sapiens, UniProt Q96LD8).
T5 sequence (Q96LD8 whole entry): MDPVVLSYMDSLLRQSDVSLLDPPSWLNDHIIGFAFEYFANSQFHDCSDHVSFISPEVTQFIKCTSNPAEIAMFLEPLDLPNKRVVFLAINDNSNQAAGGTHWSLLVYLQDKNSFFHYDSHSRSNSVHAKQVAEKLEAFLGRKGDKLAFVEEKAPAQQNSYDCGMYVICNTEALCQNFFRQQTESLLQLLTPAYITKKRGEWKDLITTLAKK
Type of assay: functional.

The target in assay [12] is T5, Sentrin-specific protease 8. Format: functional. This is another data set of the same source.
For a further assay, the target named is T6, Caspase-6 (Homo sapiens, UniProt P55212).
T6 sequence (P55212 whole entry): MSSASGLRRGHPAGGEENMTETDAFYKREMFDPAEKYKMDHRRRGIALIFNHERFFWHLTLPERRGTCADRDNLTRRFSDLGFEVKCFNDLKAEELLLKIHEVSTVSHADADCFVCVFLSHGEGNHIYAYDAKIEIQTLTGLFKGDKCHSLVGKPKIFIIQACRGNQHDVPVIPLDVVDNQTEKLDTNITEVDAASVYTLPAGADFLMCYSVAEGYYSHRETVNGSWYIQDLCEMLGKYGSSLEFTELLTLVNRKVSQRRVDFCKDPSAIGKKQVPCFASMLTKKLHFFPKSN
Put plainly: human caspase-6 inhibitors, dose response, biochemical, VEID-R110 fluorescence, cherry-pick (AID 720632).

In a further assay the target is Caspase-9 (Homo sapiens, UniProt P55211). Put plainly: caspase-9 enzyme inhibition, dose response, selectivity assay for caspase-6 inhibitor project, biochemical, fluorescence, plate reader, cherry-picked samples (AID 743293).
Caspase-9, sequence (P55211 1-315 limits assumed): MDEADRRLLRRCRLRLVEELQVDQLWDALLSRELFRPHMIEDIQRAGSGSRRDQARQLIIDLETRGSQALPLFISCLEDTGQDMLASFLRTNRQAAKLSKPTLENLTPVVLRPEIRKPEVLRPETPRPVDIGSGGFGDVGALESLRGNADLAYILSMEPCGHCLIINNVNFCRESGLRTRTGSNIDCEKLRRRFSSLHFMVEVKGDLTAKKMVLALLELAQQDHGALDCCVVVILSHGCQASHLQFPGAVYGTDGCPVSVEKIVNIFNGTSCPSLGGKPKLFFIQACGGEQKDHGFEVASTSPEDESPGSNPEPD
Caspase-9, sequence (P55211 331-416 limits assumed): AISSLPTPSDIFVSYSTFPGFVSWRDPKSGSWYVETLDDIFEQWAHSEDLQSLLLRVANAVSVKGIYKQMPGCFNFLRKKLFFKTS
For the next assay, the target named is Caspase-7 (Homo sapiens, UniProt P55210). Put plainly: human caspase-7 inhibitors, dose response, selectivity assay for caspase-6 inhibitor project, biochemical, DEVD-R110 fluorescence, cherry-pick (AID 743295). Format: […].
Caspase-7, sequence (P55210 24-198 limits assumed): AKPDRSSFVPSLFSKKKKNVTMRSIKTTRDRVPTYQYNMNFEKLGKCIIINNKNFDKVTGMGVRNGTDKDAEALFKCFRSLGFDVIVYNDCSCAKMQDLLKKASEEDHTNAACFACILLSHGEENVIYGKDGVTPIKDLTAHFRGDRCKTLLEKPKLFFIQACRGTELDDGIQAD
Caspase-7, sequence (P55210 207-303 limits assumed): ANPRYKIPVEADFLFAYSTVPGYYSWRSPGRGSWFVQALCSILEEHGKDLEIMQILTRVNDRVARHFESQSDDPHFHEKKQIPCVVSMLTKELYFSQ
The next assay has as its target Caspase-8 (Homo sapiens, UniProt Q14790). Put plainly: caspase-8 inhibition counter-screen, dose response, selectivity assay for caspase-6 inhibitor project, biochemical, Z-IETD-R110 fluorescence, cherry-picked samples (AID 743294).

Molecules are shown by their SMILES. Active and inactive are the calls of the source. Some results are limits rather than exact numbers.

T2 sequence (O14727 whole entry): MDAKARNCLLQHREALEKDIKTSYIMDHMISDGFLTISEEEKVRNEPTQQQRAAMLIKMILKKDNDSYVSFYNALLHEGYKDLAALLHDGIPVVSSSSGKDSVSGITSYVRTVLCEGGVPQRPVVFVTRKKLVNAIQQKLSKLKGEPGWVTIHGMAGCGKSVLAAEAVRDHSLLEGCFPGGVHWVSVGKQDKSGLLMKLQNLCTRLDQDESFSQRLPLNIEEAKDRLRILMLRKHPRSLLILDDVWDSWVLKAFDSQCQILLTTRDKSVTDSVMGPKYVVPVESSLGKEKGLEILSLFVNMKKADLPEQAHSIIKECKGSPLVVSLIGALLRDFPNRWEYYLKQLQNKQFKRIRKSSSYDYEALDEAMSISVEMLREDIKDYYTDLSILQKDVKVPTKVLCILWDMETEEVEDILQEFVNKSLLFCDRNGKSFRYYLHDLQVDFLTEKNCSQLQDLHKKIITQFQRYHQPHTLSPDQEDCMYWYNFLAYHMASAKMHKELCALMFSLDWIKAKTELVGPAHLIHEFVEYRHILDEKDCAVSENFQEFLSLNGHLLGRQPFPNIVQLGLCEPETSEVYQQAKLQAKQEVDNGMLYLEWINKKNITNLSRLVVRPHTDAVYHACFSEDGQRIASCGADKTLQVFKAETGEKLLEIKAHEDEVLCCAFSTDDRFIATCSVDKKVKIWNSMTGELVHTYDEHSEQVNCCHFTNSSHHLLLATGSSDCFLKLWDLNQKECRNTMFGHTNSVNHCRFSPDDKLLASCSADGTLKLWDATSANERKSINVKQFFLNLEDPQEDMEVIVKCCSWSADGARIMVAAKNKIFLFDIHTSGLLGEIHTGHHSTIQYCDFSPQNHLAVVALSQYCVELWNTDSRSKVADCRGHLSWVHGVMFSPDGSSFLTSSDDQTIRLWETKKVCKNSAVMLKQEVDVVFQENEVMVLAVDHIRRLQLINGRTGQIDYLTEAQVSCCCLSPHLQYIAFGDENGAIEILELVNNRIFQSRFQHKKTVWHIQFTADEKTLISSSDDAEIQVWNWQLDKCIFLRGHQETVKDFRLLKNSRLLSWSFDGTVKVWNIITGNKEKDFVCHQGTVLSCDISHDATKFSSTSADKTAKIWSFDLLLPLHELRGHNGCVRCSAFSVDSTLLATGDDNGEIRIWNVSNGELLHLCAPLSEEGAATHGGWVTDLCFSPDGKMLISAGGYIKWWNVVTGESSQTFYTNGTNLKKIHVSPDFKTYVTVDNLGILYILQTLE
Latent membrane protein 1, sequence (P03230 whole entry): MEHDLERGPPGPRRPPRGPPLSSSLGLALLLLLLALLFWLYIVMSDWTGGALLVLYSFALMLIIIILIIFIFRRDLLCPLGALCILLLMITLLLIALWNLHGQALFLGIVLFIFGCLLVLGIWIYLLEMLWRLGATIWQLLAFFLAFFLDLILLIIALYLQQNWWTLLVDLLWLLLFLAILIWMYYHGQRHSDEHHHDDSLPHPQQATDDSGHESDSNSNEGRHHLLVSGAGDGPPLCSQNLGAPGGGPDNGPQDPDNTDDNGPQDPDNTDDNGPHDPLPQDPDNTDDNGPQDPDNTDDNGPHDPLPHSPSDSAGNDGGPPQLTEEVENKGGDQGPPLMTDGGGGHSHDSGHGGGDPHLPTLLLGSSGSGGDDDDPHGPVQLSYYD
Caspase-8, sequence (Q14790 217-374 limits assumed): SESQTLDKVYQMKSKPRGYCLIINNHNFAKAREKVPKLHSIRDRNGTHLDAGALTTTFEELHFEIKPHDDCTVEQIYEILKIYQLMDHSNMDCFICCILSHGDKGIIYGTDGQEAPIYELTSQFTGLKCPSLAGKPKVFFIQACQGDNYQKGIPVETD
Caspase-8, sequence (Q14790 385-479 limits assumed): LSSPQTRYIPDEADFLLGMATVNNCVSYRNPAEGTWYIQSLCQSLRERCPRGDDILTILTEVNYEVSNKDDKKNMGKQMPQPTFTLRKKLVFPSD
DNA topoisomerase, sequence (A0A2S9PM60 whole entry): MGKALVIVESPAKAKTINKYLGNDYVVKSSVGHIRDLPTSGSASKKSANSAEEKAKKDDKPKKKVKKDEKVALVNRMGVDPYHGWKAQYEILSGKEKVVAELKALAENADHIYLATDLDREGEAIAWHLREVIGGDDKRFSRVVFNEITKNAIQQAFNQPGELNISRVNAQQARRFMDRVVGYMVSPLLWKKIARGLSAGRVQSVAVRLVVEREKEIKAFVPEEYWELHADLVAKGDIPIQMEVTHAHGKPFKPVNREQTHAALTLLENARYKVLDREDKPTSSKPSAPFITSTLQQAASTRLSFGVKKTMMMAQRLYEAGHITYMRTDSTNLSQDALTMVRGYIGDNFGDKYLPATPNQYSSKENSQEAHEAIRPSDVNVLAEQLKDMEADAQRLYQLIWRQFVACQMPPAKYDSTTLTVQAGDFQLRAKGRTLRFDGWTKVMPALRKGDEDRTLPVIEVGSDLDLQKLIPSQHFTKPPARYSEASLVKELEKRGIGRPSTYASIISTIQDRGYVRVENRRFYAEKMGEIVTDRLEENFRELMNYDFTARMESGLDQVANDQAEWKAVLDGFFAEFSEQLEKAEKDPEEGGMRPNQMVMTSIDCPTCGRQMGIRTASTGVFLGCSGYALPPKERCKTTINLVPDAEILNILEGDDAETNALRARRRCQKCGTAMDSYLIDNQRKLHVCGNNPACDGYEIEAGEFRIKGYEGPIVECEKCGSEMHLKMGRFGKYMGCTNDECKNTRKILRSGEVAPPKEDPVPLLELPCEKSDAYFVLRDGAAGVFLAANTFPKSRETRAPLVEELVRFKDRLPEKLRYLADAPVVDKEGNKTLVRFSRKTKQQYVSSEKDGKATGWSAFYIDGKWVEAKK

As to `O=C(NCCN(CCNC(=O)c1nc[nH]c1C(=O)Nc1ccc(Cl)cc1)CCNC(=O)c1nc[nH]c1C(=O)Nc1ccc(Cl)cc1)c1nc[nH]c1C(=O)Nc1ccc(Cl)cc1`, the AC50 in [1] is 1.67 µM (active); at DNA topoisomerase, 6.39 µM (active); in the assay on INS1 it was 7.12 µM (active).
As to `CSc1nnc2c(n1)c(C)nn2-c1cccc(C)c1`, the EC50 in assay [2] was 6.4 µM (active).
With `CC1(C)N=C(N)N=C(N)N1c1ccc(CCCCc2ccccc2)cc1`, the AC50 in assay [3] is 28.9 µM (active); in [4], 11.2 µM (active).
In the case of `Cc1nc2ccccc2n1CC(C)C(=O)O` (stereo not drawn), the values for the EC50 in assay [5] and in assay [6] were > 100 µM (inactive) and 94.1 µM (active), respectively.
`N#CC(c1ccccc1)c1cnn(Cc2cccc3ccccc23)c(=O)c1Br` (stereo not drawn): the results for the IC50 in [7] and in assay [8] were ~0.227 µM (active) and > 20 µM (inactive), respectively.
As for `Oc1cc(NCCN2CCOCC2)cc2cccnc12`, the AC50 in [9] is 25.9 µM (active); at Caspase-6 it was 3.39 µM (active); on Caspase-9 it was 15.9 µM (active); at Caspase-7, 3.53 µM (active); on Caspase-8, 17.6 µM (active). The IC50 was 8.53 µM (active) in [10], 4.63 µM (active) in [11] and 2.68 µM (active) in assay [12].

The AC50 is the concentration at which the activity in the assay is half-maximal. As usually defined, the IC50 is the point on the concentration scale where inhibition reaches its midpoint.

Source of the values: ChEMBL document CHEMBL1201862, “PubChem BioAssay data set” (2004).
